# Experimental data published in ChEMBL document CHEMBL4418478, “2,4,5-trisubstituted thiazole compounds,preparation methods,pharmaceutical compositions and medical uses thereof” (2016).
# Molecular target: Phospholipid transfer protein (Homo sapiens) (UniProt P55058)
# Assay: Inhibition of PLTP in plasma (unknown origin) at 150 uM using liver phospholipid, phospholipids liposome and HDL and TSE incubated for 1 hr relative to control
# Phospholipid transfer protein (Homo sapiens), sequence (P55058 whole entry): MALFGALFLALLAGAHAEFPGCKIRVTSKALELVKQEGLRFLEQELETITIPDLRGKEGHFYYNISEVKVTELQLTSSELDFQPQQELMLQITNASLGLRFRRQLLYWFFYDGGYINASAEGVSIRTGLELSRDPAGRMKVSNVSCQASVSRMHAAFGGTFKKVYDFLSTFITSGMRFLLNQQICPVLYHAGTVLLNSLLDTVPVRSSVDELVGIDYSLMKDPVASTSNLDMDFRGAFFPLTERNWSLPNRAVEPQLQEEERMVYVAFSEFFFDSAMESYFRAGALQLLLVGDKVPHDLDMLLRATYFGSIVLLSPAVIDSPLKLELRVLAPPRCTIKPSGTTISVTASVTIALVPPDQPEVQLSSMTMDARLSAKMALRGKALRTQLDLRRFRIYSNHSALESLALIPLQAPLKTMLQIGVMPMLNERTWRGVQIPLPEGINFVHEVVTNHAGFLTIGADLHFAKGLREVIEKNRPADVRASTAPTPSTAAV
row,inhibition [%],Structure (SMILES)
1,0,COc1ccc(-c2nc(N)sc2CC2CCCCC2)cc1
2,0,O=C(Nc1nc(-c2ccc(O)cc2)c(Cc2ccccc2)s1)c1ccc(Cl)cc1
3,0,COc1ccc(C(=O)Nc2nc(-c3ccc(O)cc3)c(Cc3ccccc3)s2)cc1
